Results as given in patent publication US11453703B2, “Heterotandem bicyclic peptide complexes” (BicycleTX Limited, priority 2018, dated 2022).

Assays:
human Nectin-4 protein = molecular target: T1, human Nectin-4 protein (Homo sapiens, UniProt Q96NY8); assay: Nectin-4 Biacore (SPR) binding assay; conditions: biotinylated human Nectin-4, 25° C.
T1 construct: Human Nectin-4 (residues Gly32-Ser349); host or cells: Sf21 insect cells (baculovirus, pFastbac-1)
T1 sequence (Q96NY8 32-349): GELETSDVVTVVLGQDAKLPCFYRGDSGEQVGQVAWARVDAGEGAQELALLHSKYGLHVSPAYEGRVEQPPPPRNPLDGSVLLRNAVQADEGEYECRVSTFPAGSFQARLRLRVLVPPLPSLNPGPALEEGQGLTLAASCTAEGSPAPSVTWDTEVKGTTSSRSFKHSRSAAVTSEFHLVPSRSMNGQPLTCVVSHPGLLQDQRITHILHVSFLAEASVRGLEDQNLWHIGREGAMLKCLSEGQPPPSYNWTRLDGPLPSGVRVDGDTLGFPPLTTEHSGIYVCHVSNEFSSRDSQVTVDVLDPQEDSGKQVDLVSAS
Experimental: Biacore experiments were performed to determine ka (M^−1s^−1), kd (s^−1), KD (nM) values of heterotandem peptides binding to human Nectin-4 protein (obtained from Charles River). Human Nectin-4 (residues Gly32-Ser349; NCBI RefSeq: NP_112178.2) with a gp67 signal sequence and C-terminal FLAG tag was cloned into pFastbac-1 and baculovirus made using standard Bac-to-Bac™ protocols (Life Technologies). Sf21 cells at 1×10^6 ml^−1 in Excell-420 medium (Sigma) at 27° C. were infected at an MOI of 2 with a P1 virus stock and the supernatant harvested at 72 hours. The supernatant was batch bound for 1 hour at 4° C. with Anti-FLAG M2 affinity agarose resin (Sigma) washed in PBS and the resin subsequently transferred to a column and washed extensively with PBS. The protein was eluted with 100 μg/ml FLAG peptide. The eluted protein was concentrated to 2 ml and loaded onto an S-200 Superdex column (GE Healthcare) in PBS at 1 ml/min. 2 ml fractions were collected and the fractions containing Nectin-4 protein were concentrated to 16 mg/ml.
The protein was extensively desalted to remove uncoupled biotin using spin columns into PBS.
For analysis of peptide binding, a Biacore 3000 instrument was used with a CM5 chip (GE Healthcare). Streptavidin was immobilized on the chip using standard amine-coupling chemistry at 25° C. with HBS-N (10 mM HEPES, 0.15 M NaCl, pH 7.4) as the running buffer. Briefly, the carboxymethyl dextran surface was activated with a 7 minute injection of a 1:1 ratio of 0.4 M 1-ethyl-3-(3-dimethylaminopropyl) carbodiimide hydrochloride (EDC)/0.1 M N-hydroxy succinimide (NHS) at a flow rate of 10 μl/min. For capture of streptavidin, the protein was diluted to 0.2 mg/ml in 10 mM sodium acetate (pH 4.5) and captured by injecting 120 μl of streptavidin onto the activated chip surface. Residual activated groups were blocked with a 7 minute injection of 1 M ethanolamine (pH 8.5) and biotinylated Nectin-4 captured to a level of 1,200-1,800 RU. Buffer was changed to PBS/0.05% Tween 20 and a dilution series of the peptides was prepared in this buffer with a final DMSO concentration of 0.5%. The top peptide concentration was 100 nM with 6 further 2-fold dilutions. The SPR analysis was run at 25° C. at a flow rate of 50 μl/min with 60 seconds association and dissociation between 400 and 1,200 seconds depending upon the individual peptide. Data were corrected for DMSO excluded volume effects. All data were double-referenced for blank injections and reference surface using standard processing procedures and data processing and kinetic fitting were performed using Scrubber software, version 2.0c (BioLogic Software). Data were fitted using simple 1:1 binding model allowing for mass transport effects where appropriate.

[1] = system: human PBMC co-cultured with 4T1-D02 (Nectin4+); assay: Human PBMC-4T1 co-culture (cytokine release) assay; format: cell-based; conditions: anti-CD3 stimulated PBMC, 48 hours
Experimental: Mouse mammary gland tumor cell line 4T1-1 (4T1-Parental) and murine Nectin-4 overexpressing 4T1 (4T1-D02) were cultured in RPMI1640 supplemented with 10% heat-inactivated Fetal Bovine Serum, 100 I.U/ml Penicillin and 100 I.U/Streptomycin, 20 mM HEPES, 1× Non-Essential Amino Acids, and 2 mM L-Glutamine (RPMI working medium). Frozen PBMCs from healthy human donors were thawed and washed one time in room temperature PBS, and then resuspended in RPMI working medium. For tumor cell and PBMC co-culture, 10000 PBMCs and 2000 tumor cells (5:1) were mixed and plated in each well of a 384 well plate. For stimulating human PBMCs, 125 ng/ml of soluble anti-CD3 mAb (clone OKT3) was added to the culture on day 0. Test, control compounds or vehicle controls were added to respective wells and brought the final volume per well to 100u1. Plates were incubated in a 37° C. cell culture incubator with 5% CO2 for up to three days. Supernatants were collected 48 hours after stimulation, and human IL-2 and IFFγ were detected using HTRF assays. Raw data were analyzed using Excel or Prism software to generate standard curves to interpolate protein concentrations. Data represents one study with three different donor PBMC tested in experimental duplicates.

CD137 [2] = molecular target: T2, CD137 (Homo sapiens, UniProt Q07011); assay: CD137 reporter assay, co-culture with Nectin-4 tumour cells; format: cell-based; design: host or cells: Jurkat reporter cells; conditions: for Fold Induction over Background: tumour target Nectin4, co-culture with H1376, 6 h;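 as to all read-outs here: jurkat reporter cells co-cultured with tumour cells and test article for 6 h, luminescence signal relative to Jurkat plus tumour cells lacking test article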
Experimental: Culture medium referred to as R1 media is prepared by adding 1% FBS to RPMI-1640 (component of Promega kit CS196005). Serial dilutions of test articles in R1 are prepared in a sterile 96 well-plate. Use 25 μl per well of test articles or R1 (as a background control) to designated wells in white cell culture plate. Tumour cells* are harvested and resuspended at a concentration of 400,000 cells/mL in R1 media. Twenty five (25) μL/well tumour cells are used in white cell culture plate. Jurkat cells (Promega kit CS196005, 0.5 mL) are thawed in the water bath and then added to 5 ml pre-warmed R1 medium. Twenty five (25) μL/well Jurkat cells are used in white cell culture plate. Incubate the cells and test articles for 6h at 37° C., 5% CO2. At the end of 6 h, add 75 μl/well Bio-Glo™ (Promega) and incubate for 10 min before reading luminescence in a plate reader (Clariostar, BMG). The fold change relative to cells (Jurkat cells+Cell line used in co-culture) is calculated and plotted in GraphPad Prism as log(agonist) vs response to determine EC50 (nM) and Fold Induction over background (Max)

CD137 [3] = molecular target: T2, CD137; assay: CD137 Biacore (SPR) binding assay; design: purchased R&D systems; conditions: biotinylated human CD137, 25° C.
Summary of the method: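 Biotinylated human CD137 captured (270-1500 RU) on streptavidin-coupled dextran chip; peptides up to 500 nM in PBS/0.05% Tween 20, 0.5% DMSO, at 25°C, 60 s association, 900 s dissociation. Double-referenced data fitted to 1:1 binding model, with mass transport where appropriate.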

T2 sequence (Q07011 24-255): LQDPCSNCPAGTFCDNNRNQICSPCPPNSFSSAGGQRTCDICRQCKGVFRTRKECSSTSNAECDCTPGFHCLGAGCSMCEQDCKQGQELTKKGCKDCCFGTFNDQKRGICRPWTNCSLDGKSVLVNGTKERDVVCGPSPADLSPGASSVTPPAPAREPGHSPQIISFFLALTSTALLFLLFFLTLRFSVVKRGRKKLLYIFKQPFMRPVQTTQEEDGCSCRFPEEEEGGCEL

Row | Structure (SMILES) | Kd (human Nectin-4 protein) | max IFN-y [1] | fold induction at 0.1 µM (CD137 [2]; read-out: Fold Induction over Background at 100 nM) | Kd (CD137 [3]) | EC50 (CD137 [2]) | Fold Induction over Background (CD137 [2])
1 | CCCC[C@@H]1NC(=O)[C@H](Cc2ccc(O)cc2)NC(=O)[C@@H]2CCCN2C(=O)[C@H](CC(=O)O)NC(=O)[C@H](C)NC(=O)[C@H](Cc2ccccc2)NC(=O)[C@@H]2CSCCC(=O)N3CN(CN(C3)C(=O)CCSC[C@@H](C(=O)N[C@@H](CNC(=O)CCOCCOCCOCCOCCOCCOCCOCCOCCOCCOCCOCCOCCn3cc(CCC(=O)NCCC(=O)N(C)CC(=O)N(C)CC(=O)N(C)CC(=O)N(C)CC(=O)N(C)CC(=O)N(C)CC(=O)N(C)CC(=O)N(C)CC(=O)N(C)CC(=O)N(C)CC(=O)N[C@H]4CSCCC(=O)N5CN6CN(C5)C(=O)CCSC[C@H](NC(=O)[C@@H](CC(=O)O)NC(=O)[C@H](Cc5cccc7ccccc57)NC(=O)[C@@H]5CCCN5C4=O)C(=O)N[C@@H](CCSC)C(=O)N[C@@H](CCCCNC(=N)N)C(=O)N[C@@H](CC(=O)O)C(=O)N[C@H](Cc4c[nH]c5ccccc45)C(=O)N[C@@H](CO)C(=O)N[C@@H]([C@@H](C)O)C(=O)N4CCC[C@H]4C(=O)N4C[C@H](O)C[C@H]4C(=O)N[C@H](Cc4c[nH]c5ccccc45)C(=O)N[C@H](C(N)=O)CSCCC6=O)nn3)C(N)=O)NC1=O)C(=O)CCSC[C@H](NC(=O)[C@H](C)NC(C)=O)C(=O)N[C@@H]([C@@H](C)CC)C(=O)N[C@@H](CCC(=O)O)C(=O)N[C@@H](CCC(=O)O)C(=O)NCC(=O)N[C@@H](CCC(N)=O)C(=O)N[C@@H](Cc1ccc(O)cc1)C(=O)N2 [BCY9350] | > 0.2 µM | No Activity up to 1 μM | < 2 | – | – | –
2 | CCCC[C@@H]1NC(=O)[C@H](Cc2ccc(O)cc2)NC(=O)[C@@H]2CCCN2C(=O)[C@H](CC(=O)O)NC(=O)[C@H](C)NC(=O)[C@H](Cc2ccccc2)NC(=O)[C@@H]2CSCCC(=O)N3CN(CN(C3)C(=O)CCSC[C@@H](C(=O)N[C@@H](CNC(=O)CCc3cn(CCCNC(=O)CN(C)C(=O)CN(C)C(=O)CN(C)C(=O)CN(C)C(=O)CN(C)C(=O)COCCOCCOCCOCCOCCNC(=O)N[C@H]4CSCCC(=O)N5CN6CN(C5)C(=O)CCSC[C@H](NC(=O)[C@@H](CC(=O)O)NC(=O)[C@H](Cc5cccc7ccccc57)NC(=O)[C@@H]5CCCN5C4=O)C(=O)N[C@@H](CCSC)C(=O)N[C@@H](CCCCNC(=N)N)C(=O)N[C@@H](CC(=O)O)C(=O)N[C@@H](Cc4c[nH]c5ccccc45)C(=O)N[C@@H](CO)C(=O)N[C@@H]([C@@H](C)O)C(=O)N4CCC[C@H]4C(=O)N4C[C@H](O)C[C@H]4C(=O)N[C@@H](Cc4c[nH]c5ccccc45)C(=O)N[C@H](C(N)=O)CSCCC6=O)nn3)C(N)=O)NC1=O)C(=O)CCSC[C@H](NC(=O)[C@H](C)NC(C)=O)C(=O)N[C@@H]([C@@H](C)CC)C(=O)N[C@@H](CCC(=O)O)C(=O)N[C@@H](CCC(=O)O)C(=O)NCC(=O)N[C@@H](CCC(N)=O)C(=O)N[C@@H](Cc1ccc(O)cc1)C(=O)N2 [BCY9410] | 0.00149 µM | – | – | 0.0658 µM | 0.0013 µM | 24 fold
3 | CCCC[C@@H]1NC(=O)[C@H](Cc2ccc(O)cc2)NC(=O)[C@@H]2CCCN2C(=O)[C@H](CC(=O)O)NC(=O)[C@H](C)NC(=O)[C@H](Cc2ccccc2)NC(=O)[C@@H]2CSCCC(=O)N3CN(CN(C3)C(=O)CCSC[C@@H](C(=O)N[C@@H](CNC(=O)CCc3cn(CCOCCOCCOCCOCCOCCNC(=O)N[C@H]4CSCCC(=O)N5CN6CN(C5)C(=O)CCSC[C@H](NC(=O)[C@@H](CC(=O)O)NC(=O)[C@H](Cc5cccc7ccccc57)NC(=O)[C@@H]5CCCN5C4=O)C(=O)N[C@@H](CCSC)C(=O)N[C@@H](CCCCNC(=N)N)C(=O)N[C@@H](CC(=O)O)C(=O)N[C@@H](Cc4c[nH]c5ccccc45)C(=O)N[C@@H](CO)C(=O)N[C@@H]([C@@H](C)O)C(=O)N4CCC[C@H]4C(=O)N4C[C@H](O)C[C@H]4C(=O)N[C@@H](Cc4c[nH]c5ccccc45)C(=O)N[C@H](C(N)=O)CSCCC6=O)nn3)C(N)=O)NC1=O)C(=O)CCSC[C@H](NC(=O)[C@H](C)NC(C)=O)C(=O)N[C@@H]([C@@H](C)CC)C(=O)N[C@@H](CCC(=O)O)C(=O)N[C@@H](CCC(=O)O)C(=O)NCC(=O)N[C@@H](CCC(N)=O)C(=O)N[C@@H](Cc1ccc(O)cc1)C(=O)N2 [BCY9411] | 0.00148 µM | – | – | 0.0711 µM | 0.014 µM | 41 fold
